# Laboratory results from PMC11775033, “Toxicokinetics of benzotriazole UV stabilizer UV-P in humans after single oral administration” (Archives of Toxicology, 2024).
# Several values for one entry are separate records, joined by “and”; a condition that tells them apart may be missing. Equal entries are not always repeated. Where two headings read alike, the source gives them in different places.
# Assays:
# [1] = human, cited from earlier work
# [2] = cited from earlier work
# [3] = design: method as in ref Fent et al. [2014]; Zhuang et al. [2017]; Sakuragi et al. [2021]; conditions: in vivo studies; ref Fent et al. [2014]; Zhuang et al. [2017]; Sakuragi et al. [2021]; cited from earlier work
# [4] = system: aryl hydrocarbon receptor; design: method as in ref Fent et al. [2014]; Kubota et al. [2022]; Liang et al. [2023]; Nagayoshi et al. [2015]; conditions: ref Fent et al. [2014]; Kubota et al. [2022]; Liang et al. [2023]; Nagayoshi et al. [2015]; cited from earlier work
# [5] = Renal excretion kinetics of UV-P in urine after single oral administration (human volunteer study); assay type: in vivo; conditions: for half-life: oral, 0.3 mg/kg body weight
# Protocol: Three healthy volunteers (two men and one person) aged between 23 and 57 years were included in the study. […] The NOAEL was used as a starting point and a safety factor of 100 was applied. As a result, 0.3 mg/kg body weight was administered to each participant.
# (§1) One blood and one urine sample were collected from each study participant prior to the oral administration of UV-P to determine potential background exposure. 14–27 mg of UV-P (see Table 1) were weighed onto a small piece of bread with butter, which was then consumed by the volunteers. From Subject 1, urine and blood samples were collected up to 72 h post-application. From the other two subjects, samples of urine and blood were collected up to 48 h post-application. The participants collected all urine voids in separate containers. Sampling times and volumes were recorded for each sample. The urine samples were aliquoted and stored at − 20 °C until analysis. 9 ml of blood were drawn from peripheral veins 1 h, 2 h, 3 h, 4 h, 5 h, 6 h, 10 h, 24 h, and 48 h after exposure and collected in EDTA-Monovettes®. From Subject 1, additional blood samples were drawn 8 h, 12 h, 32 h, and 72 h after exposure. Blood samples were stored at – 20 °C until analysis.
# The preparation and processing of urine samples was based on a method published by Fischer and Göen ([2021]). However, a few modifications were made. The samples were thawed at room temperature, thoroughly mixed, and subsequently centrifuged at 1600 × g for 2 min. 200 µl of the supernatant were transferred into a 10-ml glass, conical-bottomed centrifuge tube. 800 µl of water, 10 µl of the internal-standard spiking solution (10 mg/l of d4-UV-P in acetonitrile), and 1 ml of sodium acetate buffer (0.4 M, pH 5.0) were added to the samples. After vortex-mixing, 10 µl of β-glucuronidase/arylsulfatase from H. pomatia were added and the samples were briefly vortex-mixed. Enzymatic hydrolysis was performed at 37 °C for 16 h. Afterwards, 2 ml of water, 700 µl of isopropanol, and 400 µl of chloroform were added. The samples were vortex-mixed for 30 s and centrifuged at 2300 × g for 15 min. The lower organic phases were pipetted into 1.8-ml glass vials and evaporated to dryness, followed by the addition of 40 µl of toluene and 40 µl of BSA/TMCS. The samples were vortex-mixed and derivatized at room temperature for 10 min. Afterwards, 20 µl of 5% (v/v) TSIM were added. The samples were vortex-mixed and transferred into the micro-inserts of 1.8-ml glass vials. Finally, the samples were heated to 40 °C for 1 h and analyzed by GC–MS/MS.
# A nine-point calibration curve in the range of 10–5000 µg/l was applied for the analysis of the in vivo study samples. For calibration, two analyte spiking solutions containing 50 mg/l and 2 mg/l of UV-P were prepared in acetonitrile.
# The urinary creatinine content of the study samples was determined photometrically by the Jaffé’s method (Larsen [1972]). To quantify the unconjugated form of UV-P, the urine samples of one study participant were additionally processed without the addition of β-glucuronidase/arylsulfatase from H. pomatia and incubation at 37 °C.
# Renal excretion rates (RE, in µg/h) of UV-P at a certain point in time were calculated by the following equation: RE=ci×vi/ti-ti-1 where ci (in µg/l) is the concentration of UV-P in the urine sample i, vi (in l) is the volume of the respective urine sample, ti (in h) is the elapsed time value of sample collection, and ti–1 (in h) is the elapsed time value of the previous sample collection.
# [6] = system: rats; design: method as in OECD [2017]; conditions: ref OECD [2017]; cited from earlier work
# [7] = Kinetics of UV-P in blood after single oral administration (human volunteer study); assay type: in vivo; conditions: for half-life: po, 0.3 mg/kg; for Tmax: oral, post-exposure, read-out: time of maximum blood levels
# Protocol: Three healthy volunteers (two men and one person) aged between 23 and 57 years were included in the study. The administered dose of UV-P was calculated with respect to an adequate distance from the no-observed-adverse-effect level (NOAEL) determined in toxicological studies in rats (30 mg/kg body weight per day) (OECD [2017]). The NOAEL was used as a starting point and a safety factor of 100 was applied. As a result, 0.3 mg/kg body weight was administered to each participant.
# as §1
# The preparation and processing of the blood samples was based on a previously published method (Fischer and Göen [2023]). The samples were stored at – 20 °C until analysis. The samples were thawed at room temperature and mixed on a roller mixer. 1 ml of each sample was pipetted into a separate 6-ml glass vial. 20 µl of the d4-UV-P spiking solution [1000 µg/l of d4-UV-P in a mixture of 0.9% NaCl solution and acetonitrile (v/v, 9:1)] was added. 1 ml of acetonitrile was added to the samples, which were then vortex-mixed for 1 min and centrifuged at 4000 × g for 15 min at room temperature. The supernatants were transferred to clean 6-ml glass vials. 0.5 ml of sodium acetate buffer (0.4 M, pH 5.0) and 10 µl of β-glucuronidase/arylsulfatase from H. pomatia were added. After brief vortex-mixing, the samples were incubated at 37 °C for 16 h. After incubation, the samples were transferred to conical-bottomed centrifuge tubes and diluted with 2.5 ml of water. 1 ml of acetonitrile and 700 µl of chloroform were added and the samples were vortex-mixed for 30 s and centrifuged at 2500 × g for 15 min. The lower organic phases were pipetted into separate 1.8-ml glass vials and evaporated to dryness, followed by the addition of 40 µl of toluene and 40 µl of BSA/TMCS. The samples were vortex-mixed and derivatized at room temperature for 10 min. Afterwards, 20 µl of 5% (v/v) TSIM were added. The samples were vortex-mixed and transferred into the micro-inserts of 1.8-ml glass vials. Finally, the samples were heated to 40 °C for 1 h and analyzed by GC–MS/MS.
# A seven-point calibration curve in the range of 0.5–150 µg/l was applied. Calibration standards were prepared by spiking human blood with various volumes of the UV-P spiking solutions containing 1000 µg/l or 100 µg/l of UV-P in a mixture of 0.9% NaCl solution and acetonitrile (v/v, 9:1). One sample each of Qlow (low-concentration quality-control material; 1 µg/l) and Qhigh (high-concentration quality-control material; 30 µg/l) was processed analogously to the samples in each analytical run. A reagent-blank sample, containing water instead of blood, was included in each analytical run as well. Any blank values were subtracted from the analytical results. The reliability criteria of the method are given in the Supplementary Information. […]
# [8] = system: human serum albumin; design: method as in Zhuang et al. [2016]; conditions: ref Zhuang et al. [2016]; cited from earlier work
# [9] = design: method as in ref Arisu et al. [1992]; Björkner and Niklasson [1997]; Niklasson and Björkner [1989]; conditions: ref Arisu et al. [1992]; Björkner and Niklasson [1997]; Niklasson and Björkner [1989]; cited from earlier work
structure (smiles),measurement,setting,value
CC(C)(C)c1cc(-n2nc3ccc(Cl)cc3n2)c(O)c(C(C)(C)C)c1 [UV-327],time of maximum concentrations in blood (average),"[1]; in vivo, po",6 h
same,sum of renally eliminated parent compound and metabolites,[2]; in vivo,0.03%
"Cc1ccc(O)c(-n2nc3ccccc3n2)c1 [UV-P, 2-(2H-Benzotriazol-2-yl)-p-cresol]",endocrine effects in vivo,[3],no indication of endocrine effects
same,activation of the aryl hydrocarbon receptor,[4],activates
same,orally administered dose recovered in urine within 72 h,"[5]; Subject 1 only, 72 h",44.9%
same,time at which cumulative amount excreted via urine reached a plateau,"[5]; after exposure, Subject 1 (Figure SI-3)",about 24 h
same,half-life,"[5]; both sexes, human, urine, human urine, first phase until 7 h post-administration, n = 3, mean ± SD (range), read-out: t1/2—Phase 1 (renal excretion) (converted)",0.7 ± 0.2 h
same,half-life,"[5]; both sexes, human, urine, human urine, second elimination phase, n = 3, mean ± SD (range), read-out: t1/2—Phase 2 (renal excretion) (converted)",6.6 ± 1.1 h
same,Tmax,"[5]; both sexes, human, urine, po, 0.3 mg/kg, human urine, single oral 0.3 mg/kg, n = 3, mean ± SD (range), read-out: tmax (timepoint of maximum renal excretion rate)",3.5 ± 1.1 h
same,"FUE after 6 h (urinary excretion factor, % of dose)","[5]; human urine, 6 h, n = 3, mean ± SD (range)",26.7–33.2%
same,"FUE after 12 h (urinary excretion factor, % of dose)","[5]; human urine, 12 h, n = 3, mean ± SD (range)",30.4–40.2%
same,"FUE after 24 h (urinary excretion factor, % of dose)","[5]; human urine, 24 h, n = 3, mean ± SD (range)",31.7–43.3%
same,"FUE after 48 h (urinary excretion factor, % of dose)","[5]; human urine, 48 h, n = 3, mean ± SD (range)",37.2 ± 5.4% and 32.0–44.7% and 32–45% and 37%
same,REmax (maximum renal excretion rate),"[5]; human urine, single oral 0.3 mg/kg body weight, with enzymatic hydrolysis, n = 3, mean ± SD (range), 0.3 mg/kg",2896 ± 884 µg/h and 2896 ± 885 µg/h
same,tmax (timepoint of maximum renal excretion rate),"[5]; human urine, single oral 0.3 mg/kg, n = 3, mean ± SD (range), 0.3 mg/kg",2.6 to 5.0 h and 3 to 5 h
same,no-observed-adverse-effect level (NOAEL),[6],30 mg/kg body weight per day
same,half-life,"[7]; both sexes, human, whole blood, human blood, single oral 0.3 mg/kg, first phase up to 6 h, n = 3, mean ± SD (range), read-out: t1/2—Phase 1 (blood) (converted)",1.3 ± 0.1 h
same,half-life,"[7]; both sexes, human, whole blood, human blood, single oral 0.3 mg/kg, second phase, n = 3, mean ± SD (range), read-out: t1/2—Phase 2 (blood) (converted)",7.7 ± 1.1 h
same,concentration at 6 h,"[7]; both sexes, human, whole blood, 6 h post-exposure, single oral 0.3 mg/kg, n = 3, read-out: mean blood level of UV-P",44 ± 30 ng/mL
same,concentration at 24 h,"[7]; both sexes, human, whole blood, 24 h post-exposure, single oral 0.3 mg/kg, n = 3, read-out: mean blood level of UV-P",2.5 ± 1.3 ng/mL
same,concentration at 48 h,"[7]; both sexes, human, whole blood, 48 h post-exposure, single oral 0.3 mg/kg, n = 3, read-out: mean blood level of UV-P",0.7 ± 0.7 ng/mL
same,Cmax,"[7]; both sexes, whole blood, human blood, single oral 0.3 mg/kg body weight, with enzymatic hydrolysis, n = 3, mean ± SD (range), read-out: cmax (maximum level of UV-P in blood)",184 ± 36 ng/mL
same,concentration at 72 h,"[7]; human, whole blood, 0.3 mg/kg body weight, 72 h after oral administration, Subject 1 only, read-out: blood level of UV-P",0.45 ng/mL
same,Tmax,"[7]; human, whole blood, 0.3 mg/kg body weight, third subject (Subject 1)",4 h
same,Tmax,"[7]; human, whole blood, 0.3 mg/kg body weight, two of the subjects (Subjects 2 and 3)",1 to 2 h
same,"slope of linear fit, blood levels without vs with hydrolysis (unconjugated share)",[7]; subject 1,0.133
same,"slope of linear fit, blood levels without vs with hydrolysis (unconjugated share)",[7]; subject 2,0.196
same,"slope of linear fit, blood levels without vs with hydrolysis (unconjugated share)",[7]; subject 3,0.135
same,binding to human serum albumin,[8],bind
same,allergic contact dermatitis,[9],cause allergic contact dermatitis
"CCC(C)(C)c1cc(-n2nc3ccccc3n2)c(O)c(C(C)(C)CC)c1 [UV-328, 2-(2H-benzotriazol-2-yl)-4,6-di-tert-pentylphenol]",time of maximum concentrations in blood (average),"[1]; after oral administration, ref Fischer et al. [2023], Denghel et al. [2021]",8 h
same,share of ingested amount excreted via urine as parent compound,"[2]; accumulated until 72 h post-exposure, ref Denghel et al. [2021], Fischer et al. [2023]",0.001%
same,share of conjugation of renally eliminated compound,"[2]; human urine, ref Denghel et al. [2021], Fischer et al. [2023]",16%
same,sum of renally eliminated parent compound and metabolites,"[2]; share of ingested amount, ref Denghel et al. [2021], Fischer et al. [2023]",0.12%
